According to patent publication US10688088B2 (priority 2015, dated 2020):
Where two headings read alike, the source gives them in different places.

Key:
Format in all cases: cell-based, Mycobacterium tuberculosis
[1] = tested on: M. tuberculosis T113, resistant to isoniazid (INH), rifampicin (RIF), ethambutol (ETB) and ofloxacin (OFX); parameters: MIC 2: MIC of the substance tested in combination / MIC 1: MIC of the substance tested alone: unit not given beside the values; settings: for MIC 2: MIC of the substance tested in combination / MIC 1: MIC of the substance tested alone: strain T113
[2] = tested on: M tuberculosis T3609, resistant to ofloxacin (OFX) and streptomycin; parameters: MIC 2: MIC of the substance tested in combination / MIC 1: MIC of the substance tested alone: unit not given beside the values; settings: for MIC 2: MIC of the substance tested in combination / MIC 1: MIC of the substance tested alone: strain T3609
[3] = tested on: M. tuberculosis; settings: all the strains (H37Rv, T3609, T113)

`COc1c(N2C[C@@H]3CCCN[C@@H]3C2)c(F)cc2c(=O)c(C(=O)O)cn(C3CC3)c12` [MOX, moxifloxacin] was tested, and the “MIC 2: MIC of the substance tested in combination” value (from here on “MIC 2: MIC of the substance tested”) ([1]; combination MFL + MOX) was 0.31, the “MIC 1: MIC of the substance tested alone” value [1] was 0.25 and the “MIC 2: MIC of the substance tested” value ([2]; combination MFL + MOX) was 0.62. For the same compound, the “MIC 1: MIC of the substance tested alone” value [2] was 1.25.

With `NNC(=O)c1ccncc1` [INH, isoniazid] the “MIC 2: MIC of the substance tested” value ([1]; combination MFL + INH) was 3.12, the “MIC 1: MIC of the substance tested alone” value [1] was 6.25 and the “MIC 2: MIC of the substance tested” value ([2]; combination MFL + INH) was 0.015. For the same compound, the “MIC 1: MIC of the substance tested alone” value [2] was 0.5.

In the case of `COc1c(N2CCNC(C)C2)c(F)cc2c(=O)c(C(=O)O)cn(C3CC3)c12` (stereo not drawn) [GAT, gatifloxacin], the “MIC 2: MIC of the substance tested” value ([1]; combination MFL + GAT) is reported as 0.15, the “MIC 1: MIC of the substance tested alone” value [1] is reported as 0.12 and the “MIC 2: MIC of the substance tested” value ([2]; combination MFL + GAT) is reported as 0.31. The “MIC 1: MIC of the substance tested alone” value [2] was 0.62.

In the case of `NC(=O)c1cnccn1` [PYR, pyrazinamide], the “MIC 1: MIC of the substance tested alone” value [1] is reported as greater than 100 and the “MIC 1: MIC of the substance tested alone” value [2] is reported as greater than 100.

For `OC(c1cc(C(F)(F)F)nc2c(C(F)(F)F)cccc12)C1CCCCN1` (stereo not drawn) [Mefloquine, mefloquine], the “MIC 2: MIC of the substance tested” value ([1]; combination MEF + CPX) was 0.31, the “MIC 2: MIC of the substance tested” value ([1]; combination MEF + LVX) was 0.31 and the “MIC 2: MIC of the substance tested” value ([1]; combination MFL + GAT) was 0.15. The “MIC 2: MIC of the substance tested” value ([1]; combination MFL + INH) was 3.12, the “MIC 2: MIC of the substance tested” value ([1]; combination MFL + LYN) was 0.31 and the “MIC 2: MIC of the substance tested” value ([1]; combination MFL + MOX) was 0.31. The “MIC 2: MIC of the substance tested” value ([1]; combination MFL + OFX) was 0.62, the “MIC 2: MIC of the substance tested” value ([1]; combination MFL + PYR) was 0.62 and the “MIC 2: MIC of the substance tested” value ([1]; combination MFL + SPR) was 0.12. For the same compound, the MICcombination ([1]; strain T113, Table 2B) was 25 µg/mL, the “MIC 2: MIC of the substance tested” value ([2]; combination MEF + CPX) was 3.12 and the “MIC 2: MIC of the substance tested” value ([2]; combination MEF + LVX) was 2.50. The “MIC 2: MIC of the substance tested” value ([2]; combination MFL + GAT) was 0.31, the “MIC 2: MIC of the substance tested” value ([2]; combination MFL + INH) was 0.015 and the “MIC 2: MIC of the substance tested” value ([2]; combination MFL + MOX) was 0.62. The “MIC 2: MIC of the substance tested” value ([2]; combination MFL + OFX) was 2.5, the “MIC 2: MIC of the substance tested” value ([2]; combination MFL + PYR) was 0.62 and the “MIC 2: MIC of the substance tested” value ([2]; combination MFL + SPR) was 0.62. For the same compound, the MICcombination ([2]; strain T3609, Tables 1B and 2A) was 25 µg/mL and the “cross-resistance (MIC across strains)” value [3] was “no cross-resistance”.

In the case of `CC(=O)NC[C@H]1CN(c2ccc(N3CCOCC3)c(F)c2)C(=O)O1` [LYN, linezolid], the “MIC 2: MIC of the substance tested” value ([1]; combination MFL + LYN) is reported as 0.31 and the “MIC 1: MIC of the substance tested alone” value [1] is reported as 0.50.

In the case of `C[C@H]1COc2c(N3CCN(C)CC3)c(F)cc3c(=O)c(C(=O)O)cn1c23` [LVX, levofloxacin], the “MIC 2: MIC of the substance tested” value ([1]; combination MEF + LVX) is reported as 0.31, the “MIC 1: MIC of the substance tested alone” value [1] is reported as 0.62 and the “MIC 2: MIC of the substance tested” value ([2]; combination MEF + LVX) is reported as 2.50. For the same compound, the “MIC 1: MIC of the substance tested alone” value [2] was 2.50.

For `CC1COc2c(N3CCN(C)CC3)c(F)cc3c(=O)c(C(=O)O)cn1c23` (stereo not drawn) [OFX, ofloxacin], the “MIC 2: MIC of the substance tested” value ([1]; combination MFL + OFX) was 0.62, the “MIC 1: MIC of the substance tested alone” value [1] was 1.25 and the “MIC 2: MIC of the substance tested” value ([2]; combination MFL + OFX) was 2.5. For the same compound, the “MIC 1: MIC of the substance tested alone” value [2] was 5.0.

In the case of `C[C@@H]1CN(c2c(F)c(N)c3c(=O)c(C(=O)O)cn(C4CC4)c3c2F)C[C@H](C)N1` [SPR, sparfloxacin], the “MIC 2: MIC of the substance tested” value ([1]; combination MFL + SPR) is reported as 0.12, the “MIC 1: MIC of the substance tested alone” value [1] is reported as 0.12 and the “MIC 2: MIC of the substance tested” value ([2]; combination MFL + SPR) is reported as 0.62. The “MIC 1: MIC of the substance tested alone” value [2] was 1.25.

With `O=C(O)c1cn(C2CC2)c2cc(N3CCNCC3)c(F)cc2c1=O` [CPX, ciprofloxacin] the “MIC 2: MIC of the substance tested” value ([1]; combination MEF + CPX) was 0.31, the “MIC 1: MIC of the substance tested alone” value [1] was 0.62 and the “MIC 2: MIC of the substance tested” value ([2]; combination MEF + CPX) was 3.12. For the same compound, the “MIC 1: MIC of the substance tested alone” value [2] was 5.00.

`CC[C@@H](CO)NCCN[C@@H](CC)CO` [ETB, ethambutol] was tested, and the “MIC 2: MIC of the substance tested” value ([1]; combination MFL + ETB) was 12.5 and the “MIC 1: MIC of the substance tested alone” value [1] was 25.0.
